The text below walks through data of US20250353891A1 (MEDIMMUNE LIMITED, priority 2022, published 2025).

pEC50: −log10 of the molar value. Starred links: 1 amine or outer side, 2 acyl side, 3 side chain; linkers in the order of their positions; H or OH if unused. Non-standard residues stand in square brackets, D forms with d. Residues, ends and D or L forms follow the SMILES beside them. Groups on a side chain read outwards from the residue. *: point of attachment. C18 diacid = O=C(O)CCCCCCCCCCCCCCCCC(=O)*; γGlu = O=C(O)[C@H](CCC(=O)[*:2])N[*:1]; αMeF = C[C@](N)(Cc1ccccc1)C(=O)O; AEEA = NCCOCCOCC(=O)O; Aib = CC(C)(N)C(=O)O

As a reminder, the pEC50 is the EC50 on a negative log10 scale, so that one unit is a factor of ten.

Test [1] has as its target human GLP-1 receptor (hGLP-1R) (Homo sapiens, UniProt P43220). Description: cAMP production (HTRF) in CHO cells expressing hGLP-1R. The class given is cell-based. More on the design: expressed in transfected cells. The note with it: for pEC50: Table 6, peptides modified at position 17, cAMP in CHO hGLP-1R cells, geometric mean, read-out: hGLP-1R EC50; for % Relative Potency Ratio: Table 6, % GLP-1R activity relative to GLP-1 / % GlucR activity relative to glucagon. An outline of the steps: (§1)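 Potency values represent EC50 from 4-parameter logistic curves of HTRF % Delta F signal. Receptor-expressing CHO cells (hGCGR 2×10^5 cells/mL, hGLP-1R 1×10^5 cells/mL) were exposed for 30 min at room temperature before two-step cAMP detection.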
(In general: Cyclic AMP is a second messenger, typically raised through Gs and lowered through Gi signalling.)

Test [2] has as its target human glucagon receptor (hGCGR) (Homo sapiens, UniProt P47871). Description: cAMP production (HTRF) in CHO cells expressing hGCGR. The note with it: Table 6, peptides modified at position 17; cAMP in CHO hGCGR cells; geometric mean; read-out: hGluc-R EC50. The class given is cell-based. More on the design: expressed in transfected cells. An outline of the steps:
as §1

Chain of human GLP-1 receptor (hGLP-1R) (P43220 24-463): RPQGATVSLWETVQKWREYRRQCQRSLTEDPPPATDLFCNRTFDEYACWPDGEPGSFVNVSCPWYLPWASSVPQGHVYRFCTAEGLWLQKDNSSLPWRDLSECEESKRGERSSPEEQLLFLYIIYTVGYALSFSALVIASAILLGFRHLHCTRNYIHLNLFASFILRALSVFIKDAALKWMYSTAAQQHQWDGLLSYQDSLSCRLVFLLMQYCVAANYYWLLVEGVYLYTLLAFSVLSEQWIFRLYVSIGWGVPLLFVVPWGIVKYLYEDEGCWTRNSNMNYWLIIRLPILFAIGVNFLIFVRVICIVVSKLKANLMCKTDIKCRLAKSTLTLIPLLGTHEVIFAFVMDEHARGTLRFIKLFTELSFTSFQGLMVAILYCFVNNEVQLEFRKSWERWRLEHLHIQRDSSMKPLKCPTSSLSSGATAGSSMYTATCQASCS
Chain of human glucagon receptor (hGCGR) (P47871 26-477): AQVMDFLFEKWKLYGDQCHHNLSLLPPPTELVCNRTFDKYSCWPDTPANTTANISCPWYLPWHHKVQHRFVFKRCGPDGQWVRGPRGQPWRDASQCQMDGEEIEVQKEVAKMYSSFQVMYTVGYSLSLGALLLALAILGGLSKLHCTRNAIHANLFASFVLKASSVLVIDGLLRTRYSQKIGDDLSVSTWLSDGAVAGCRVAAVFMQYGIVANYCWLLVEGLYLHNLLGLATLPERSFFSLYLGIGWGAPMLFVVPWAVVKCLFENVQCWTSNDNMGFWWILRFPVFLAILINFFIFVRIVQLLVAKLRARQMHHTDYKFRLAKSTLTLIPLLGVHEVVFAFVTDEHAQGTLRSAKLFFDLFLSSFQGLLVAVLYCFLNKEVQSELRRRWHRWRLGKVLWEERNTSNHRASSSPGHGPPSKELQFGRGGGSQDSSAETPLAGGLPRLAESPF

For the molecule `CC(C)C[C@H](NC(=O)[C@H](Cc1c[nH]c2ccccc12)NC(=O)[C@H](CCCNC(=N)N)NC(=O)[C@@H](NC(=O)[C@H](Cc1ccccc1)NC(=O)[C@H](CC(=O)O)NC(=O)[C@H](CCC(N)=O)NC(=O)[C@H](C)NC(=O)[C@H](CCCNC(=N)N)NC(=O)[C@H](CCCCNC(=O)COCCOCCNC(=O)COCCOCCNC(=O)CC[C@H](NC(=O)CCCCCCCCCCCCCCCCC(=O)O)C(=O)O)NC(=O)[C@H](CO)NC(=O)[C@H](CCC(=O)O)NC(=O)[C@H](CC(C)C)NC(=O)[C@](C)(Cc1ccccc1)NC(=O)[C@H](CCCCN)NC(=O)[C@H](CO)NC(=O)[C@@H](NC(=O)[C@H](CC(=O)O)NC(=O)[C@H](CO)NC(=O)[C@@H](NC(=O)[C@H](Cc1ccccc1)NC(=O)[C@@H](NC(=O)CNC(=O)[C@H](CCC(N)=O)NC(=O)C(C)(C)NC(=O)[C@@H](N)Cc1c[nH]cn1)[C@@H](C)O)[C@@H](C)O)C(C)C)C(C)C)C(=O)N[C@@H](CC(C)C)C(=O)NC(C)(C)C(=O)N[C@@H](CCC(=O)O)C(=O)O` [Peptide 173] (H-H[Aib]QGTFTSDVSK[αMeF]LESK([AEEA-AEEA-γGlu-C18 diacid])RAQDFVRWLL[Aib]E-OH; N-terminus assumed), in test [1], the pEC50 was 9.87 and the “% Relative Potency Ratio” value was 12.9. The pEC50 in test [2] is 9.06.
As for `CC(C)C[C@H](NC(=O)[C@H](Cc1c[nH]c2ccccc12)NC(=O)[C@H](CCCNC(=N)N)NC(=O)[C@@H](NC(=O)[C@H](Cc1ccccc1)NC(=O)[C@H](CC(=O)O)NC(=O)[C@H](CCC(N)=O)NC(=O)[C@H](C)NC(=O)[C@H](CCCNC(=N)N)NC(=O)[C@H](CCCCNC(=O)COCCOCCNC(=O)COCCOCCNC(=O)CC[C@H](NC(=O)CCCCCCCCCCCCCCCCC(=O)O)C(=O)O)NC(=O)[C@@H](NC(=O)[C@H](CC(=O)O)NC(=O)[C@H](CC(C)C)NC(=O)[C@](C)(Cc1ccccc1)NC(=O)[C@H](CCCCN)NC(=O)[C@H](CO)NC(=O)[C@@H](NC(=O)[C@H](CC(=O)O)NC(=O)[C@H](CO)NC(=O)[C@@H](NC(=O)[C@H](Cc1ccccc1)NC(=O)[C@@H](NC(=O)CNC(=O)[C@H](CCC(N)=O)NC(=O)C(C)(C)NC(=O)[C@@H](N)Cc1c[nH]cn1)[C@@H](C)O)[C@@H](C)O)C(C)C)[C@@H](C)O)C(C)C)C(=O)N[C@@H](CC(C)C)C(=O)NC(C)(C)C(=O)N[C@H](C(=O)N[C@@H](CCC(=O)O)C(=O)O)[C@@H](C)O` [Peptide 174] (H-H[Aib]QGTFTSDVSK[αMeF]LDTK([AEEA-AEEA-γGlu-C18 diacid])RAQDFVRWLL[Aib]TE-OH; N-terminus assumed), in test [1], the pEC50 is 9.90 and the “% Relative Potency Ratio” value stood at 6.5. The negative logarithm of the EC50 (pEC50) in test [2] was 9.38.
The matching figures for `CC(C)C[C@H](NC(=O)[C@H](Cc1c[nH]c2ccccc12)NC(=O)[C@H](CCCNC(=N)N)NC(=O)[C@@H](NC(=O)[C@H](Cc1ccccc1)NC(=O)[C@H](CC(=O)O)NC(=O)[C@H](CCC(N)=O)NC(=O)[C@H](C)NC(=O)[C@H](CCCNC(=N)N)NC(=O)[C@H](CCCCNC(=O)COCCOCCNC(=O)COCCOCCNC(=O)CC[C@H](NC(=O)CCCCCCCCCCCCCCCCC(=O)O)C(=O)O)NC(=O)[C@H](CO)NC(=O)[C@H](CC(=O)O)NC(=O)[C@H](CC(C)C)NC(=O)[C@](C)(Cc1ccccc1)NC(=O)[C@H](CCCCN)NC(=O)[C@H](CO)NC(=O)[C@@H](NC(=O)[C@H](CC(=O)O)NC(=O)[C@H](CO)NC(=O)[C@@H](NC(=O)[C@H](Cc1ccccc1)NC(=O)[C@@H](NC(=O)CNC(=O)[C@H](CCC(N)=O)NC(=O)C(C)(C)NC(=O)[C@@H](N)Cc1c[nH]cn1)[C@@H](C)O)[C@@H](C)O)C(C)C)C(C)C)C(=O)N[C@@H](C)C(=O)NC(C)(C)C(=O)N[C@H](C(=O)N[C@@H](CCC(=O)O)C(=O)O)[C@@H](C)O` [Peptide 175] (H-H[Aib]QGTFTSDVSK[αMeF]LDSK([AEEA-AEEA-γGlu-C18 diacid])RAQDFVRWLA[Aib]TE-OH): 10.17, 58.4 and 8.69.
On the same counts, the results for `CC(C)C[C@H](NC(=O)[C@H](Cc1c[nH]c2ccccc12)NC(=O)[C@H](CCCNC(=N)N)NC(=O)[C@@H](NC(=O)[C@H](Cc1ccccc1)NC(=O)[C@H](CC(=O)O)NC(=O)[C@H](CCC(N)=O)NC(=O)[C@H](C)NC(=O)[C@H](CCCNC(=N)N)NC(=O)[C@H](CCCCNC(=O)COCCOCCNC(=O)COCCOCCNC(=O)CC[C@H](NC(=O)CCCCCCCCCCCCCCCCC(=O)O)C(=O)O)NC(=O)[C@H](CO)NC(=O)[C@H](CC(=O)O)NC(=O)[C@H](CC(C)C)NC(=O)[C@](C)(Cc1ccccc1)NC(=O)[C@H](CCCCN)NC(=O)[C@H](CO)NC(=O)[C@@H](NC(=O)[C@H](CC(=O)O)NC(=O)[C@H](CO)NC(=O)[C@@H](NC(=O)[C@H](Cc1ccccc1)NC(=O)[C@@H](NC(=O)CNC(=O)[C@H](CCC(N)=O)NC(=O)C(C)(C)NC(=O)[C@@H](N)Cc1c[nH]cn1)[C@@H](C)O)[C@@H](C)O)C(C)C)C(C)C)C(=O)N[C@@H](CC(C)C)C(=O)NC(C)(C)C(=O)N[C@H](C(=O)N[C@@H](C)C(=O)O)[C@@H](C)O` [Peptide 176] (H-H[Aib]QGTFTSDVSK[αMeF]LDSK([AEEA-AEEA-γGlu-C18 diacid])RAQDFVRWLL[Aib]TA-OH; N-terminus assumed) are 10.22, 15.9 and 9.32.
The matching figures for `CC(C)C[C@H](NC(=O)[C@H](Cc1c[nH]c2ccccc12)NC(=O)[C@H](CCCNC(=N)N)NC(=O)[C@@H](NC(=O)[C@H](Cc1ccccc1)NC(=O)[C@H](CC(=O)O)NC(=O)[C@H](CCC(N)=O)NC(=O)[C@H](C)NC(=O)[C@H](CCCNC(=N)N)NC(=O)[C@H](CCCCNC(=O)COCCOCCNC(=O)COCCOCCNC(=O)CC[C@H](NC(=O)CCCCCCCCCCCCCCCCC(=O)O)C(=O)O)NC(=O)[C@H](CCCCN)NC(=O)[C@H](CC(=O)O)NC(=O)[C@H](CC(C)C)NC(=O)[C@](C)(Cc1ccccc1)NC(=O)[C@H](CCCCN)NC(=O)[C@H](CO)NC(=O)[C@@H](NC(=O)[C@H](CC(=O)O)NC(=O)[C@H](CO)NC(=O)[C@@H](NC(=O)[C@H](Cc1ccccc1)NC(=O)[C@@H](NC(=O)CNC(=O)[C@H](CCC(N)=O)NC(=O)C(C)(C)NC(=O)[C@@H](N)Cc1c[nH]cn1)[C@@H](C)O)[C@@H](C)O)C(C)C)C(C)C)C(=O)N[C@@H](CC(C)C)C(=O)NC(C)(C)C(=O)N[C@H](C(=O)N[C@@H](CCC(=O)O)C(=O)O)[C@@H](C)O` [Peptide 178]: 10.29, 4.0 and 9.98.
